Assay results: patent US20090012152A1, “Use of Tetramic Acid Derivatives for Controlling Insects from the Genus of the Plane Lice (Sternorrhyncha)” (Bayer CropScience Aktiengesellschaft, priority 2005, published 2009)

Key:
Assay type in all cases: in vivo
[1] = system: Pulvinaria aethiopicus; assay: Example 10: mandarin trees treated against Pulvinaria aethiopicus; details: 45 days after last of two treatments, on fruits, % a.i.: mineral oil 0.251 + pyriproxifen 0.003, I-9 0.0096, I-2 0.0144
Experimental: In three replications, about 6-year-old mandarin trees of the cultivar “Naartje” are treated against Pulvinaria aethiopicus. Two applications are carried out at an interval of 32 days as irradication treatment using a knapsack operated with pressurized air. Here, the active compounds Example (I-9) (240 SC) and Example (I-2) (240 SC) are tested against a commercial tank mix of a mineral oil (835 EC) which is commercially available in South Africa and customarily used in this country and pyriproxifen (100 EC) at the stated amounts. The application rate is 8.3 l of water/tree.
Evaluation is carried out 45 days after the last treatment by rating the kill in percent on the fruits.

[2] = system: Pulvinaria aurantii; assay: Example 11: satsuma trees treated against Pulvinaria aurantii; details: 41 days after treatment; live animals counted, Henderson and Tilton; satsuma tree; % a.i.: buprofezin 0.025, I-4 0.0144
Experimental: In three replications, in each case one about 4-year-old satsuma tree of the cultivar “Nankan 20” is treated against Pulvinaria aurantii. Here, the active compound Example (I-4) (240 SC) in a tank mix with 0.2% of rapeseed oil methyl ester (500 EW) at the stated application rate is tested against the commercial standard buprofezin at the stated application rate. The application is carried out using a motor-operated knapsack sprayer. Here, each plant is treated with 400 ml of spray liquor.
Evaluation is carried out before and 41 days after the treatment by counting the live animals. The efficacy in percent is then calculated according to Henderson and Tilton.

[3] = system: Macrosiphum euphorbiae; assay: Example 46: head lettuce treated against Macrosiphum euphorbiae; details: nymphs on plants, g a.i./ha: endosulfan 1120, I-4 48
Experimental: In four replications, plots of a size of about 33 m^2 with head lettuce of the cultivar “PIC 714” are treated against Aulacorthum solani, Macrosiphum euphorbiae and Myzus persicae. The application is carried out using a tractor sprayer. Here, the active compound Example (I-4) (240 SC), in a tank mix with 0.2% a.i. of rapeseed oil methyl ester (500 EW), is tested against the commercial standard endosulfan (360 EC), at the stated application rates. The application rate is 187 l of water/ha. Two treatments are carried out, at an interval of 22 days.
Evaluation is carried out 8, 22, 30 and 40 days after the first treatment by rating the kill of the nymphs on the plants.

[4] = system: Pseudaulacaspis pentagona; assay: Example 24: tea plants treated against Pseudaulacaspis pentagona; details: crawlers on tea plants, % a.i.: Supracide EC 0.04, I-4 0.01
Experimental: In nine replications, about 7-week-old tea plants of the cultivar “Yakubita” are treated against Pseudaulacaspis pentagona. Here, the active compound Example (I-4) (200 SC) is tested against the commercial standard Supracide EC (400 EC) at the stated application rates. The application is carried out using a sprayer operated with pressurized air. Evaluation is carried out 16 and 35 days after the treatment by rating the kill of the crawlers on the plants.

[5] = system: Pemphigus bursarius; assay: Example 3: chrysanthemums, lettuce root aphid; details: on roots, spray on above-ground parts 96 g of a.i./ha
Experimental: In three replications, in each case 10 about 5-month-old chrysanthemums (Camilla) in 2 l-vessels are treated against the lettuce root aphid Pemphigus bursarius. Here, the active compound Example (I-4) (240 SC) is applied with a knapsack sprayer operated by pressurized air at the beginning of the infestation at the stated application rates to the above-ground parts of the plants. The soil is covered with a film. The application rate is 600 l of water/ha. 0.1% a.i. of rapeseed oil methyl ester (500 EW) is added to the spray liquor. Omethoate as drip irrigation in a concentration of 0.1% is used for comparison. The application is carried out two days later.
The kill in percent is determined on the roots. […]

[6] = system: Lepidosaphes beckii; assay: Example 18: citrus trees treated against Lepidosaphes beckii; details: 140 days after treatment, larvae on fruits, g a.i./ha/m crown height: pyriproxyfen 50, I-4 48
Experimental: In three replications, in plots of a size of about 20 m^2, citrus trees of the cultivar “Oro Nules” are treated against Lepidosaphes beckii. The application is carried out using a high-pressure sprayer. Here, the active compound Example (I-4) (240 SC) in a tank mix with 0.1% a.i. of rapeseed oil methyl ester (500 EW) is tested against the commercial standard pyriproxyfen (100 EC), at the stated application rates. The application rate is 2500 l of water/ha.
Evaluation is carried out 140 days after the treatment by rating the kill of the larvae on the fruits.

[7] = system: Psylla piri; assay: Example 5: pear trees treated against Psylla piri; details: nymphs on shoots, g a.i./ha/m crown height: amitraz 266, I-4 72
Experimental: In three replications, pear trees of the cultivar “Williams Christ” are treated against Psylla piri. Application is shortly before the eggs hatch. The application is carried out using a barrow-mounted sprayer operated with pressurized air. Here, the active compound Example (I-4) (240 SC) is tested in a tank mix with 0.1% a.i. rapeseed oil methyl ester (500 EW) at the stated amount against the standard amitraz (200 EC) at the stated amount. The application rate is 1000 l of water/ha.
Evaluation is carried out 7, 14 and 21 days after the treatment by rating the kill of the nymphs on the shoots.

[8] = system: Saissetia oleae; assay: Example 13: orange trees treated against Saissetia oleae; details: nymphs on leaves, g a.i./ha/m crown height: buprofezin 500, I-4 72, I-8 30
Experimental: In three replications, in each case two about 8-year-old orange trees are treated against Saissetia oleae. Here, the active compounds Example (I-4) (240 SC) and Example (I-8) (250 SC) in a tank mix with 0.2% a.i. of rapeseed oil methyl ester (500 EW) at the stated application rate are tested against the commercial standard buprofezin in a tank mix with 0.4% a.i. of Oliocin (800 EW) at the stated application rate. The application is carried out using a motor-operated knapsack sprayer. The application rate is 3000 l of water/ha. Two treatments are carried out, at an interval of 29 days.
Evaluation is carried out 24 and 44 days after the last treatment by rating the kill of the nymphs on the leaves.

SMILES	Kill (%) [1] [%]	Effect (%) [2] [%]	Kill (%) 8 d ([3]; 8 d after first of two treatments) [%]	Kill (%) 22 d ([3]; 22 d after first of two treatments) [%]	Kill (%) 30 d ([3]; 30 d after first of two treatments) [%]	Kill (%) 40 d ([3]; 40 d after first of two treatments) [%]	Kill (%) 16 d ([4]; 16 d after treatment) [%]	Kill (%) 35 d ([4]; 35 d after treatment) [%]	Kill (%) 9 d ([5]; 9 d)	Kill (%) (17 d) ([5]; 17 d)	Kill (%) 140 days [6] [%]	Kill (%) 7 d ([7]; 7 d after treatment) [%]	Kill (%) 14 d ([7]; 14 d after treatment) [%]	Kill (%) 21 d ([7]; 21 d after treatment) [%]	Kill (%) 24 d ([8]; 24 d after last of two treatments) [%]	Kill (%) 44 d ([8]; 44 d after last of two treatments) [%]
CCOC(=O)OC1=C(c2cc(C)ccc2Br)C(=O)NC12CCC(OC)CC2 (stereo not shown) [Example (I-2)]	72															
CCOC(=O)OC1=C(c2cc(C)ccc2C)C(=O)NC12CCC(OC)CC2 (stereo not shown) [Example (I-4)]		100	95	100	100	96	81.8	75	46.9 (9 d) %	80.4 (17 d) %	100	100	100	100	53.5	56.1
